Results as given in US8420606B2, “Method of utilizing physiological activity of rare saccharide and composition containing rare saccharide” (priority 2002, dated 2013).
Entries after “also recorded” stand apart in the source; their conditions may differ.

How the values were obtained:
CINC-1 mRNA = assay: rat renal ischemia-reperfusion, northern blotting; type: in vivo; conditions: 400 mg/kg into the vein 30 minutes before clamping, 45 minutes ischemia, reperfusion for 2 hours, preliminary
Method: Target . . . Male rat with weight of about 300 g. Experiment method . . . The renal ischemia model was prepared after putting the rat under anesthesia with Nembutal. Renal ischemia . . . After picking up the right kidney, the left renal blood vessel was clamped for 45 minutes. Drugs used . . . D-allose and D-psicose (400 mg/kg per drug) were administrated into the vein 30 minutes before clamping for renal ischemia. Measurement item . . . An influence of each drug upon appearance of a trouble factor, i.e., […] neutrophil chemoattractant (CINC)-1 mRNA, was measured (after reperfusion for 2 hours).

[1] = system: OVCAR3 (ovary cancer) cells; assay: cell cycle analysis by flow cytometer; type: cell-based, human; conditions: D-allose 50 mM, cultured for 3 days; control 12.6%
Method: (2) Method: The cell cycle was analyzed by using a flow cytometer. Cells used here were OVCAR3 (ovary cancer) cells. 1) The cells were treated with trypsin to prepare a cell suspension liquid. 2) The cells were inaculated into a plastic tissue with a diameter of 100 mm and cultured for 24 hours (overnight) in a CO2 incubator. 3) Two groups of the cells, i.e., one with a rare saccharide (D-allose 50 mM) and the other with no rare saccharides (with D-glucose as a control), were cultured for 3 days. 4) The separated cells were washed twice with PBS(−). 5) After centrifugation, 3 mL of PBS(−) was added and stirred by pipetting. 6) 7 mL of 100% ethanol was added, followed by fixation at 4° C. for 2 hours. 7) The liquid was subjected to centrifugation at 1500 rpm for 5 minutes. 8) The separated cells were washed twice with cold PBS(−). 9) After centrifugation, 200 μg/mL of RNase was added, followed by incubation at 37° C. for 30 minutes. 10) 0.5 mL of PI (propidum iodide) was added, followed by incubation for 15 minutes. 11) The cell number was measured by using a flow cytometer.

[2] = system: island skin flap of Wistar rat; assay: island skin-flap ischemia-reperfusion, survival area; type: in vivo
Source text: (1) Purpose: In the past basic researches, the inventors have tried to find out the mechanisms of skin-flap necrosis after ischemia and reperfusion of island skin flaps and necrosis of distal portions of random pattern skin flaps. As a result, the inventors have clarified that active oxygen is related to the necrosis of island skin flaps after ischemia and reperfusion and the necrosis of distal portions of random pattern skin flaps. […] In this Example 7, a first purpose is to obtain basic data regarding active-oxygen production inhibitory effects of rare saccharides, and a second purpose is to ensure clinical applications with the view of effectively preventing the necrosis of island skin flaps and random pattern skin flaps. A third purpose is to realize an application as a preservative liquid for long-period preservation of free skin flaps and amputated limbs. (2) Experiment method: 1) A Wistar rat (♂, 7 to 8 weeks, and 300 g or less) was put under anesthesia through abdominal administration of pentobarbital (Nembutal). 2) The abdomen was wholly shaved by a hair clipper. 3) An island skin flap of 3×5 cm was formed in the left abdomen with the left femoral artery and vein serving as blood vessel pedicels. 4) The elevated island skin flap was stitched to the original position by using a 4-0 nylon string. 5) Drugs (0.6 mL per drug) were each administrated in one shot through the right femoral artery and vein by instantaneous injection. The administered drugs were D-allose, glucose (0.2 mg/g), and physiological saline in various concentrations.
6) After waiting for 15 minutes from the administration of each drug, the blood vessel pedicels of both the left femoral artery and vein were clamped. Two vascular clips (60 g for the vein) were used for the clamping.
7) Complete shutoff of blood circulation was confirmed by using a laser Doppler rheometer.
8) After 8 hours, the rats were unclamped. Resumption of blood circulation was also confirmed by using a laser Doppler rheometer.
9) After 1 week, the life or death of the skin flap was determined.
10) An image of the skin flap was taken by a digital camera and input to a computer to calculate a survival area (%) by using area calculation software.
(3) Experiment groups: The following 6 groups were prepared with n=15 in each group.
1) D-allose: 150 mg (0.5 mg/g)
2) D-allose: 60 mg (0.2 mg/g)
3) D-allose: 30 mg (0.1 mg/g)
4) D-allose: 15 mg (0.05 mg/g)
5) D-glucose: 60 mg (0.2 mg/g)
6) physiological saline (control)
(4) Results (FIGS. 17 to 20): FIG. 18 showing all data of the survival areas (%), and FIG. 19 showing results of variance analysis (one-dimensional arrangement). […] In the multiple comparison assay, a significant difference was determined on condition of p<0.05.

[3] = intravenous grape sugar load test (IVGTT); type: in vivo, rat; conditions: 0.5 g/kg intravenous, rats fasted 16 hours
Method: (2) Method: 1) Intravenous grape sugar load test (IVGTT) . . . IVGTT was conducted on 8-week old male SD rats by inserting a catheter through the jugular vein. A rare saccharide was administrated to 3 rats, and glucose was administrated to other 3 rats.
Perform intravenous injection (IV) at 0.5 g/kg (i.e., 0.5 g/1000 g=500 mg/1000 g=0.5 mg/g).
Prepare rare-saccharide and glucose solutions in concentration of 0.5 g/mL (i.e., 0.5 g/1000 ul=500 mg/1000 ul=0.5 mg/ul). Prepare 2 mL of solution for each concentration.
Intravenously inject 200 ul of the solution for a 200 g rat.
Intravenously inject 250 ul of the solution for a 250 g rat.
Inject 300 ul of physiological saline after the intravenous injection.
Collect 150 ul of blood sample.
Abstain each rat from food for 16 hours as pretreatment. Allow to drink water.
Collect blood at 9 points in time, i.e., 0, 5, 10, 15, 20, 25, 30, 45 and 60 minutes.

[4] = system: Pancreas β-cell strains INS-1; assay: insulin secretion from pancreas β-cell strain, ELISA; type: cell-based, rat; conditions: for concentration at which insulin secretion stimulus reached a plateau / insulin secretion into culture medium: saccharide alone; for insulin secretion into culture medium: 2.8-16.7 mM
Method: Pancreas β-cell strains INS-1 derived from insulinoma were cultured under the culture medium condition of (DMEM +10% FBS) in accordance with the ordinary method. The INS-1 cells at density of about 70% were pipitted into a 96-well culture dish, and the following experiments were performed. D-psicose was used as the ketohexose belonging to the rare saccharides.
After cultivation for 24 hours with the glucose concentration in the culture medium set to 2.8 mM, 5.6 mM, 11.2 mM and 16.7 mM, the insulin concentration in the culture medium was measured by using an ELISA (insulin kit).
By using the ELISA method, the insulin concentration in the culture medium was measured while the D-psicose concentration in the culture medium was changed to 0 mM, 2.8 mM, 5.6 mM, 11.2 mM and 16.7 mM.

SMILES | appearance rate of CINC-1 mRNA (CINC-1 mRNA) | appearance rate of CINC-1 mRNA (CINC-1 mRNA; listed as allose) | proportion of the cells in G2-M stage of the cell cycle [1] [%] | skin flap survival area versus physiological saline group and glucose group ([2]; D-allose 15 mg (0.05 mg/g)) | skin flap survival area versus physiological saline group ([2]; D-allose 30 mg (0.1 mg/g) or more (groups 150, 60, 30 mg), 8 hours clamping, 1 week, p<0.05) | skin flap survival area versus glucose group ([2]; D-allose 150 mg (0.5 mg/g) and 60 mg (0.2 mg/g)) | dose required to develop the effect of extending the skin flap survival area ([2]; per rat, 30 mg = 0.1 mg/g) [mg] | blood sugar value in IVGTT [3] | insulin concentration in the blood during IVGTT [3] | concentration at which insulin secretion stimulus reached a plateau [4] [mM] | insulin secretion into culture medium ([4]; 24 hours) | skin flap survival area versus physiological saline group ([2]; D-glucose 60 mg (0.2 mg/g)) | appearance rate of CINC-1 mRNA (CINC-1 mRNA; listed as psicose) | insulin secretion with D-psicose added to glucose ([4]; glucose fixed at 11.2 mM, psicose 2.8-16.7 mM, 24 hours)
O=C[C@H](O)[C@H](O)[C@H](O)[C@H](O)CO [D-allose] | suppressed | reduced | 22.6 | a statistical significant difference was not confirmed | a statistical significant difference was confirmed | a statistical significant difference was confirmed | ≥ 30 | – | – | – | – | – | – | –
O=C[C@H](O)[C@@H](O)[C@H](O)[C@H](O)CO [D-glucose, reference compound] | – | – | – | – | – | – | – | increased | a rise of the insulin concentration was found | 11.2 | the insulin secretion from the cells was stimulated | did not show a statistical significant difference | – | –
O=C(CO)[C@H](O)[C@H](O)[C@H](O)CO [D-psicose] | suppressed | – | – | – | – | – | – | no rise of the blood sugar value was found | influences upon the insulin secretion were not found | 11.2 | insulin was secreted depending on the D-psicose concentration; also recorded: a reaction of secreting insulin depending on the concentration of D-psicose was found | – | reduced | further stimulated in an additive way; also recorded: further promoted
